Assays:
[1] = tested on: LPS induced synovial inflammation in rabbit knee; test: Rabbit model of destructive joint inflammation (intra-articular LPS); format: in vivo, female New Zealand rabbits; conditions: for synovium inflammation score: 16 h, score 1 minimal, 2 mild, 3 moderate, 4 moderate-marked, vehicle 3
Source text: This study design mimics the destructive joint inflammation seen in arthritis. Intra-articular injection of LPS causes an acute inflammatory response characterized by the release of cytokines and chemokines, many of which have been identified in rheumatoid arthritic joints. Marked increases in leukocytes occur in synovial fluid and in synovium in response to elevation of these chemotactic mediators. Selective antagonists of chemokine receptors have shown efficacy in this model (see Podolin, et al., J. Immunol. 169(11):6435-6444 (2002)).
Sixteen hours after the LPS injection, knees were lavaged and cells counts performed. Beneficial effects of treatment were determined by histopathologic evaluation of synovial inflammation. The following inflammation scores were used for the histopathologic evaluation: 1—minimal, 2—mild, 3—moderate, 4—moderate-marked.

[2] = tested on: arthritis induced clinical ankle swelling; test: Rat model of collagen induced arthritis (17 day developing type II collagen arthritis); format: in vivo, female Lewis rats; conditions: 25 mg/kg sub-cutaneous daily day 0 till day 17
Procedure: A 17 day developing type II collagen arthritis study was conducted to evaluate the effects of compound 1.028 on arthritis induced clinical ankle swelling. Rat collagen arthritis is an experimental model of polyarthritis that has been widely used for preclinical testing of numerous anti-arthritic agents (see Trentham, et al., J. Exp. Med. 146(3):857-868 (1977), Bendele, et al., Toxicologic Pathol. 27:134-142 (1999), Bendele, et al., Arthritis Rheum. 42:498-506 (1999)). The hallmarks of this model are reliable onset and progression of robust, easily measurable polyarticular inflammation, marked cartilage destruction in association with pannus formation and mild to moderate bone resorption and periosteal bone proliferation. Female Lewis rats (approximately 0.2 kilograms) were anesthetized with isoflurane and injected with Freund's Incomplete Adjuvant containing 2 mg/mL bovine type II collagen at the base of the tail and two sites on the back on days 0 and 6 of this 17 day study. Compound 1.028 was dosed daily in a sub-cutaneous manner from day 0 till day 17 at a dose of 25 mg/kg and a volume of 1 mL/kg in the following vehicle (20% N,N-dimethylacetamide, 75% corn oil, 5% Tween-80). Caliper measurements of the ankle joint diameter were taken, and reducing joint swelling was taken as a measure of efficacy.

| SMILES | synovium inflammation score ([1]; dose 1=50 μM intra-articular with LPS 10 ng) | synovium inflammation score ([1]; dose 2=100 μM intra-articular with LPS 10 ng) | Inhibition of the inflammatory response ([1]; rabbit LPS intra-articular model) | Inhibition of arthritis induced ankle swelling [2] | change in joint diameter day9-day17 ([2]; vehicle 15.7% +/− 2.0%, normal 0% +/− 0.3%) [% +/− 1.8%] |
| --- | --- | --- | --- | --- | --- |
| Cc1c(Cl)c(C(F)(F)F)nn1CC(=O)N1CCN(c2ccc(F)cc2)CC1 [CCX-105] | 2 | 1 | significantly and specifically inhibit the inflammatory response |  |  |
| COc1cc(N2CCN(C(=O)Cn3nc(C(F)(F)F)c(Cl)c3C)CC2)c(Cl)cc1Cl [Compound 1.028] |  |  |  | significantly and specifically inhibit the arthritis induced ankle swelling | 9.1 |
